Counter-ions that a name gives are not always drawn.
Key:
[1] = Oral non-human primate crossover PK study (Example 7); assay type: in vivo, cynomolgus monkeys; conditions: four male cynomolgus monkeys, single PO capsule, 34.2 mg/kg fumarate salt (M-3, N-3); for C24(h): 24 hours post-dose, 30 mg/kg free base (K-13); for AUC / Tmax: equivalent on a molar basis to 30 mg/kg free base (K-13)
Source text: An objective of this study is to determine the Pharmacokinetic (PK) profile of the Test Article following a single oral administration to four male non-human primate cynomolgus monkeys with one (1) week wash out periods.
Four male animals are used for this study, and the four study animals are used for each of three dosing phases with one-week washout periods. Food is withheld overnight prior to dose administration, and food is returned four hours post-dose administration. Water is provided ad libitum by automatic watering device. Two of the four animals are previously treated with Compound 1, and the other two are Compound 1 naive. Test Article (M-3, N-3, or K-13) are provided as capsulized powders; stored at room temperature protected from light in, for example, a polyolefin bottle.

[2] = Pharmacokinetic analysis of Compound 1 and its salts after oral capsule administration (Example 4); assay type: in vivo, cynomolgus monkeys; conditions: 3 male cynomolgus monkeys, single PO capsule, 30 mg/kg, plasma Compound 1
Protocol: A pharmacokinetic analysis was performed comparing administration of Compound 1 with certain salts of Compound 1 after oral (PO) administration in 3 male cynomolgus monkeys. The subjects received a single PO oral gavage of active pharmaceutical ingredient (API) (e.g., Compound 1 fumarate, Compound 1 sulfate, Compound 1 hydrochloride, Compound 1 phosphate, Compound 1 tosylate, Compound 1 malonate, Compound 1 maleate, or Compound 1 free base) in a capsule at a dose of 30 mg/kg. Following dose administration, the animals were flushed with approximately 10 milliliters of tap water to ensure all API was administered. Animals were observed twice daily and at sample collection time-points for any abnormal clinical and behavioral signs. Body weights were taken prior to dosing and weekly thereafter until study termination. Blood samples (0.5 mL) were collected pre-dose, 15 minutes, 30 minutes, and 1, 2, 4, 6, 8, 10, 12, and 24 hours post-dose. Each blood sample was collected from the monkey's femoral, saphenous or other available vein via direct venipuncture, placed into a polypropylene tube containing K2EDTA as the anticoagulant, and gently inverted several times to mix. The blood samples were kept on wet ice until centrifugation. Blood was centrifuged within 10 minutes of collection. The samples were centrifuged at a temperature of 4° C., at 3,000 g, for 5 minutes. The resulting plasma (˜0.25 mL) was divided into two equal aliquots (125 μL each) into polypropylene tubes, designated as Set A and Set B, after centrifugation. Plasma samples designated for certain metabolites (Set A) were treated with 12.5 μL of 2 M ascorbic acid (plasma: ascorbic acid=[…], v:v) prepared beforehand by combining 0.352 g of ascorbic acid into 1 mL of sterile water in a glass vial and mixing thoroughly. […] Once plasma was prepared, the samples were snap frozen on dry ice. All plasma samples were stored frozen below −70° C. until analyzed.

[3] = Intrinsic dissolution rate and solubility in 0.1 N HCl with 1% Tween 80 (USP <1087>); assay type: physicochemical
Protocol: The intrinsic dissolution rate was determined by forming compacted pellets of approximately 75 mg of API using a compression force of 1200 pounds of force, and each pellet (die surface area: 0.5 cm^2) was immersed into a flat bottom vessel containing 500 mL of medium (aqueous 0.1 N HCl with 1% Tween 80 (polyoxyethylene (20) sorbitan monooleate)), using a Distek 2100A dissolution bath, and Distek Circulator/heater (set to 37° C.), with a paddle speed of 100 rpm. An aliquot of the sample (1 mL) was pulled from dissolution media at 15, 30, 45, 60, 75, 90, 105, and 120 minutes, filtered, and analyzed by HPLC. The slope of the dissolution profile corresponded to an intrinsic dissolution rate of hemi-fumarate salt Form B of 6.2 μg/(min·cm^2) as compared to 8.9 μg/(min·cm^2) for Compound 1 (free base). Determination of intrinsic dissolution rate (IDR) was performed for Compound 1 and seven different salts of Compound 1 according to USP <1087> in 0.1 N hydrochloric acid with 1% Tween 80 (Polyoxyethylene […] sorbitan monooleate). Compacted pellets containing approximately 75 mg API were prepared using a compression force of 1200 pounds of force, and each pellet (die surface area: 0.5 cm^2) was immersed into a flat bottom vessel containing 500 mL of medium, using a Distek 2100A dissolution bath, and Distek Circulator/heater (set to 37° C.), with a paddle speed of 100 rpm. An aliquot of the sample (1 mL) was pulled from dissolution media at 15, 30, 45, 60, 75, 90, 105, and 120 minutes, filtered, and analyzed by HPLC. HPLC for IDR and solid-state stability analyses were conducted with an Agilent 1260 Infinity system equipped with a G1311B Quad pump, […] Autosampler, G1330B auto-sampler thermostat, G1316A Thermostatted Column Compartment with a column switch valve, and […] diode array detector.

[4] = Solid-state stability by HPLC and XRPD; assay type: physicochemical; conditions: 40° C./75% RH, after 4 weeks
Protocol: Solid-state stability of the fumarate salt of Compound 1 was assessed after storage at the following conditions for 2 and 4 weeks by HPLC and XRPD: 40° C./75% RH (opened); and 50° C./ambient RH (closed). […] Solid-state stability of Compound 1 and seven salts of Compound 1, as in Example 8, was assessed after storage at the following conditions for 2 and 4 weeks by HPLC and PXRD: 40° C./75% RH (opened); and 50° C./ambient RH (closed). HPLC for IDR and solid-state stability analyses were conducted with an Agilent 1260 Infinity system equipped with a G1311B Quad pump, […] Autosampler, G1330B auto-sampler thermostat, G1316A Thermostatted Column Compartment with a column switch valve, and […] diode array detector.

[5] = Exposure after oral dose of micronized vs non-micronized particles of Compound 1 free base (Example 3); assay type: in vivo; conditions: male Cynomolgus monkeys, QD, 300 mg/kg, plasma, Mean (n = 3)
Protocol: Exposure of Compound 1 free base following oral (PO) dose administration of 300 mg/kg/dose of micronized particles (Example 1) and 300 mg/kg/dose non-micronized particles (Example 2) were assessed in male Cynomolgus monkeys. Blood samples were collected in K2EDTA coated polypropylene tubes from the femoral vein and plasma was separated. Samples were drawn at the following time points: pre-dose, 15 min, 30 min, 1, 2, 4, 8, 10, 12, 14, 24, 30, and 48 hours post-dose. The concentrations of Compound 1 were determined by LC-MS/MS and pharmacokinetic parameters were determined using Phoenix WinNonlin v8.0) software. [table]

[2H]C([2H])([2H])C(c1cc2nnc(-c3cc(F)ccc3F)n2nc1OCc1ncnn1C)(C([2H])([2H])[2H])C([2H])([2H])[2H] [Compound K-13, 3-(2,5-difluorophenyl)-7-[1,1-di(methyl-d3)ethyl-2,2,2-d3]-6-[(1-methyl-1H-1,2,4-triazol-5-yl)methoxy]-1,2,4-triazolo[4,3-b]pyridazine]
C24(h) [1]: 42 ng·mL
AUC [1]: 1192 ng·h/mL
Tmax [1]: 14 h

[2H]C([2H])([2H])C(c1cc2nnc(-c3cc(F)ccc3F)n2nc1OCc1ncnn1C)(C([2H])([2H])[2H])C([2H])([2H])[2H] [Compound M-3]
C24(h) [1]: 603 ng·mL
AUC [1]: 17826 ng·h/mL
Tmax [1]: 10 h

[2H]C([2H])([2H])C(c1cc2nnc(-c3cc(F)ccc3F)n2nc1OCc1ncnn1C)(C([2H])([2H])[2H])C([2H])([2H])[2H] [Compound N-3]
C24(h) [1]: 684 ng·mL
AUC [1]: 21540 ng·h/mL
Tmax [1]: 4 h

[2H]C([2H])([2H])C(c1cc2nnc(-c3cc(F)ccc3F)n2nc1OCc1ncnn1C)(C([2H])([2H])[2H])C([2H])([2H])[2H] [Hydrochloride Salt, 3-(2,5-difluorophenyl)-7-[1,1-di(methyl-d3)ethyl-2,2,2-d3]-6-[(1-methyl-1H-1,2,4-triazol-5-yl)methoxy]-1,2,4-triazolo[4,3-b]pyridazine]
AUClast [2]: 25402 ng·h/mL
Cmax [2]: 1583 ng/mL
Tmax [2]: 4.0 h
Solubility, time point 15 min ([3]; 0.1 N HCl with 1% Tween 80, 37° C., 500 mL, pellet about 75 mg, 15 min): 0.452 µg/mL
Solubility, time point 120 min ([3]; 0.1 N HCl with 1% Tween 80, 37° C., 500 mL, pellet about 75 mg, 120 min): 1.13 µg/mL
Intrinsic Dissolution Rate IDR ([3]; 0.1 N HCl with 1% Tween 80, 37° C., paddle 100 rpm, die surface 0.5 cm^2, listed as HCl Salt): 6.9 μg/(min · cm^2)
solubility at 30 min ([3]; 0.1 N HCl with 1% Tween 80, 37 °C, aqueous with cosolvent or surfactant or cyclodextrin, 500 mL, pellet about 75 mg, 30 min, read-out: Solubility, time point 30 min): 0.358 µg/mL
solubility at 45 min ([3]; 0.1 N HCl with 1% Tween 80, 37 °C, aqueous with cosolvent or surfactant or cyclodextrin, 500 mL, pellet about 75 mg, 45 min, read-out: Solubility, time point 45 min): 0.561 µg/mL
solubility at 60 min ([3]; 0.1 N HCl with 1% Tween 80, 37 °C, aqueous with cosolvent or surfactant or cyclodextrin, 500 mL, pellet about 75 mg, 60 min, read-out: Solubility, time point 60 min): 0.59 µg/mL
solubility at 75 min ([3]; 0.1 N HCl with 1% Tween 80, 37 °C, aqueous with cosolvent or surfactant or cyclodextrin, 500 mL, pellet about 75 mg, 75 min, read-out: Solubility, time point 75 min): 0.723 µg/mL
solubility at 90 min ([3]; 0.1 N HCl with 1% Tween 80, 37 °C, aqueous with cosolvent or surfactant or cyclodextrin, 500 mL, pellet about 75 mg, 90 min, read-out: Solubility, time point 90 min): 0.847 µg/mL
solubility at 105 min ([3]; 0.1 N HCl with 1% Tween 80, 37 °C, aqueous with cosolvent or surfactant or cyclodextrin, 500 mL, pellet about 75 mg, 105 min, read-out: Solubility, time point 105 min): 0.989 µg/mL
solubility ([3]; 0.1 N HCl with 1% Tween 80, 37 °C, aqueous with cosolvent or surfactant or cyclodextrin, sum of the 15-120 min time points, read-out: Solubility, Cumulative): 5.65 µg/mL
Solid-state stability, XRPD pattern [4]: small signal at 10° 2θ of Compound 1 (free base)

[2H]C([2H])([2H])C(c1cc2nnc(-c3cc(F)ccc3F)n2nc1OCc1ncnn1C)(C([2H])([2H])[2H])C([2H])([2H])[2H] [micronized, 3-(2,5-difluorophenyl)-7-[1,1-di(methyl-d3)ethyl-2,2,2-d3]-6-[(1-methyl-1H-1,2,4-triazol-5-yl)methoxy]-1,2,4-triazolo[4,3-b]pyridazine]
AUClast/Dose [5]: 530 ± 537 kg·ng·h/mL/mg
AUC∞/Dose [5]: 650 ± 730 kg·ng·h/mL/mg
AUC(0-inf) ([5]; male, cynomolgus monkey, po): 195000 ± 219000 ng·h/mL
AUC(0-t) ([5]; male, cynomolgus monkey, po): 159000 ± 161000 ng·h/mL
Cmax ([5]; male, cynomolgus monkey, po, read-out: Cmax): 6900 ± 5500 ng/mL
Tmax ([5]; male, cynomolgus monkey, po, read-out: Tmax): 4 ± 3.5 h

[2H]C([2H])([2H])C(c1cc2nnc(-c3cc(F)ccc3F)n2nc1OCc1ncnn1C)(C([2H])([2H])[2H])C([2H])([2H])[2H] [non-micronized, 3-(2,5-difluorophenyl)-7-[1,1-di(methyl-d3)ethyl-2,2,2-d3]-6-[(1-methyl-1H-1,2,4-triazol-5-yl)methoxy]-1,2,4-triazolo[4,3-b]pyridazine]
AUClast [5]: 89225 ± 104664 ng·h/mL
AUClast/Dose [5]: 297 ± 349 kg·ng·h/mL/mg
AUC∞ [5]: 98365 ± 119106 ng·h/mL
AUC∞/Dose [5]: 328 ± 397 kg·ng·h/mL/mg
Cmax [5]: 5373 ± 4112 ng/mL
Tmax [5]: 3.30 ± 1.20 h

Reference: US20250275966A1, “GABAA RECEPTOR MODULATOR SALTS, PARTICLES, AND USES THEREOF” (Engrail Therapeutics, Inc., priority 2022, published 2025)
